Publication PMC10221074, “Functional Profiling of the A-Family of Venom Peptides from the Wolf Spider Lycosa shansia” (Toxins, 2023)

Columns and labels:
[1] = system: Pseudomonas aeruginosa DSM 1117; experiment: Antibacterial growth assay (OD600); conditions: for Bacterial growth relative to medium, P. aeruginosa (1117), replicate 1 / Bacterial growth relative to medium, P. aeruginosa (1117), replicate 2 / Bacterial growth relative to medium, P. aeruginosa (1117), replicate 3: OD600, medium = 100, MH II broth; for Bacterial growth relative to medium, P. aeruginosa (1117), replicate 1: replicate column 1; for Bacterial growth relative to medium, P. aeruginosa (1117), replicate 2: replicate column 2; for Bacterial growth relative to medium, P. aeruginosa (1117), replicate 3: replicate column 3
Protocol: (§1) Cryo-conserved cultures of selected bacterial strains (Table 4) were transferred to Tryptic Soy Agar (TSA) plates (Carl Roth) with a sterile inoculation loop, sealed with Parafilm (BEMIS, Neenah, WI, USA), and incubated for 1–2 days at 37 °C depending on growth. Single colonies were picked and transferred into 2–3 mL of the Mueller–Hinton II (MH II) broth (BD, Heidelberg, Germany). The bacteria were cultivated overnight, subcultured on fresh medium and grown for 3–4 h before testing at 37 °C, with shaking at 180 rpm. We measured the optical density at 600 nm (OD600) of 1 mL of the bacterial suspensions in polystyrene cuvettes (SARSTED, Nümbrecht, Germany) using an Ultrospec 10 spectrophotometer (Biochrome, Cambridge, UK). We then diluted them with the MH II medium to the preferred OD600 (Table 2). The peptides were dissolved in DMSO to generate 10 mmol/L stocks and diluted with the MH II medium to 200 µM before the assay. We used 10 µg/mL (~40 µg/mL for S. epidermidis) gentamicin and colistin (Sigma-Aldrich, Taufkirchen, Germany), DMSO and the medium only as controls. The bacteria were transferred to 96-multiwell plates with a final volume of 100 µL per well (50 µL bacterial suspension, and 50 µL test peptide). The OD600 was measured at 0, 24 and 48 h using a BioTek Eon microplate reader followed by analysis with Gen5 v2.09.

[2] = system: Pseudomonas aeruginosa DSM 50071; experiment: Antibacterial growth assay (OD600); conditions: for Bacterial growth relative to medium, P. aeruginosa (50071), replicate 1 / Bacterial growth relative to medium, P. aeruginosa (50071), replicate 2 / Bacterial growth relative to medium, P. aeruginosa (50071), replicate 3: OD600, medium = 100, MH II broth; for Bacterial growth relative to medium, P. aeruginosa (50071), replicate 1: replicate column 1; for Bacterial growth relative to medium, P. aeruginosa (50071), replicate 2: replicate column 2; for Bacterial growth relative to medium, P. aeruginosa (50071), replicate 3: replicate column 3
[3] = system: Micrococcus luteus DSM 20030; experiment: Antibacterial growth assay (OD600); conditions: OD600, medium = 100, MH II broth; for Bacterial growth relative to medium, M. luteus, replicate 1: replicate column 1; for Bacterial growth relative to medium, M. luteus, replicate 2: replicate column 2; for Bacterial growth relative to medium, M. luteus, replicate 3: replicate column 3
Protocol: as §1

[4] = system: Staphylococcus aureus DSM 2569; experiment: Antibacterial growth assay (OD600); conditions: OD600, medium = 100, MH II broth; for Bacterial growth relative to medium, S. aureus, replicate 1: replicate column 1; for Bacterial growth relative to medium, S. aureus, replicate 2: replicate column 2; for Bacterial growth relative to medium, S. aureus, replicate 3: replicate column 3
[5] = system: Escherichia coli BL21(DE3); experiment: Antibacterial growth assay (OD600); conditions: OD600, medium = 100, MH II broth; for Bacterial growth relative to medium, E. coli, replicate 1: replicate column 1; for Bacterial growth relative to medium, E. coli, replicate 2: replicate column 2; for Bacterial growth relative to medium, E. coli, replicate 3: replicate column 3
[6] = system: Listeria monocytogenes DSM 20600; experiment: Antibacterial growth assay (OD600); conditions: for Bacterial growth relative to medium, L. monocytogenes, replicate 1 / Bacterial growth relative to medium, L. monocytogenes, replicate 2 / Bacterial growth relative to medium, L. monocytogenes, replicate 3: OD600, medium = 100, MH II broth; for Bacterial growth relative to medium, L. monocytogenes, replicate 1: replicate column 1; for Bacterial growth relative to medium, L. monocytogenes, replicate 2: replicate column 2; for Bacterial growth relative to medium, L. monocytogenes, replicate 3: replicate column 3
Protocol: as §1

[7] = system: Staphylococcus epidermidis DSM 28319; experiment: Antibacterial growth assay (OD600); conditions: for Bacterial growth relative to medium, S. epidermidis, replicate 1: replicate column 1; for Bacterial growth relative to medium, S. epidermidis, replicate 2: replicate column 2; for Bacterial growth relative to medium, S. epidermidis, replicate 3: replicate column 3
[8] = system: B/Malaysia/2506/2004 (B-Mal); format: cell-based, influenza virus
A/Hamburg/05/2009 (H1N1) = format: cell-based, influenza virus
A/Hessen/1/2003 (H3N2) = format: cell-based, influenza virus
[9] = antibiotic control, table line says 10µg/mL (methods: ~40 µg/mL for S. epidermidis), OD600, medium = 100
[10] = 37 °C, peptide 200 µM mixed 50 µL + 50 µL with bacteria, Figure 7: 48 h
[11] = OD600, medium = 100, MH II broth, 37 °C, peptide 200 µM mixed 50 µL + 50 µL with bacteria, Figure 7: 48 h

## colistin [Polymyx, reference compound]
[1]; antibiotic control 10µg/mL
  Bacterial growth relative to medium, P. aeruginosa (1117), replicate 1: 8.3082
  Bacterial growth relative to medium, P. aeruginosa (1117), replicate 2: 7.355
  Bacterial growth relative to medium, P. aeruginosa (1117), replicate 3: 3.543
[2]; antibiotic control 10µg/mL
  Bacterial growth relative to medium, P. aeruginosa (50071), replicate 1: 5.416
  Bacterial growth relative to medium, P. aeruginosa (50071), replicate 2: 11.2545
  Bacterial growth relative to medium, P. aeruginosa (50071), replicate 3: 11.5437
[3]; antibiotic control 10µg/mL
  Bacterial growth relative to medium, M. luteus, replicate 1: 34.787
  Bacterial growth relative to medium, M. luteus, replicate 2: 53.8113
  Bacterial growth relative to medium, M. luteus, replicate 3: 47.1539
[4]; antibiotic control 10µg/mL
  Bacterial growth relative to medium, S. aureus, replicate 1: 85.0041
  Bacterial growth relative to medium, S. aureus, replicate 2: 99.7935
  Bacterial growth relative to medium, S. aureus, replicate 3: 95.4465
[5]; antibiotic control 10µg/mL
  Bacterial growth relative to medium, E. coli, replicate 1: 15.553
  Bacterial growth relative to medium, E. coli, replicate 2: 16.1645
  Bacterial growth relative to medium, E. coli, replicate 3: 11.9401
[6]; antibiotic control 10µg/mL
  Bacterial growth relative to medium, L. monocytogenes, replicate 1: 82.3087
  Bacterial growth relative to medium, L. monocytogenes, replicate 2: 64.4034
  Bacterial growth relative to medium, L. monocytogenes, replicate 3: 78.447
[7]; [9]
  Bacterial growth relative to medium, S. epidermidis, replicate 1: 77.611
  Bacterial growth relative to medium, S. epidermidis, replicate 2: 72.7124
  Bacterial growth relative to medium, S. epidermidis, replicate 3: 81.8478

## SLLGLLDVVKSKIGQTG [LS-AMP-A14]
[8]
  Viability of infected cells relative to aprotinin, Replicate 1: 0.05534
  Viability of infected cells relative to aprotinin, Replicate 2: 0.06456
  Viability of infected cells relative to aprotinin, Replicate 3: 0.1102
A/Hamburg/05/2009 (H1N1)
  Viability of infected cells relative to aprotinin, Replicate 1: 0.03385
  Viability of infected cells relative to aprotinin, Replicate 2: 0.02545
  Viability of infected cells relative to aprotinin, Replicate 3: 0.02099
A/Hessen/1/2003 (H3N2)
  Viability of infected cells relative to aprotinin, Replicate 1: 0.07143
  Viability of infected cells relative to aprotinin, Replicate 2: 0.146
  Viability of infected cells relative to aprotinin, Replicate 3: 0.0602
A/Hessen/1/2003 (H3N2); […], replicate 4 (additional internal control)
  Viability of infected cells relative to aprotinin, Replicate 4: 0.04395
[1]; [10]
  Bacterial growth relative to medium, P. aeruginosa (1117), replicate 1: 84.8429
  Bacterial growth relative to medium, P. aeruginosa (1117), replicate 2: 62.4783
  Bacterial growth relative to medium, P. aeruginosa (1117), replicate 3: 58.9547
[1]; P. aeruginosa DSM 1117, growth after 48 h
  Antibacterial activity (in words): weak activity
[2]; [10]
  Bacterial growth relative to medium, P. aeruginosa (50071), replicate 1: 100.972
  Bacterial growth relative to medium, P. aeruginosa (50071), replicate 2: 116.001
  Bacterial growth relative to medium, P. aeruginosa (50071), replicate 3: 81.6852
[2]; P. aeruginosa DSM 50071, growth after 48 h
  Antibacterial activity (in words): weak activity
[3]; [10]
  Bacterial growth relative to medium, M. luteus, replicate 1: 101.208
  Bacterial growth relative to medium, M. luteus, replicate 2: 114.302
  Bacterial growth relative to medium, M. luteus, replicate 3: 44.4763
[4]; [10]
  Bacterial growth relative to medium, S. aureus, replicate 1: 81.4506
  Bacterial growth relative to medium, S. aureus, replicate 2: 83.1916
  Bacterial growth relative to medium, S. aureus, replicate 3: 66.5171
[5]; [10]
  Bacterial growth relative to medium, E. coli, replicate 1: 109.705
  Bacterial growth relative to medium, E. coli, replicate 2: 98.8412
  Bacterial growth relative to medium, E. coli, replicate 3: 96.3776
[6]; L. monocytogenes DSM 20600, growth after 48 h
  Antibacterial activity (in words): more active
[6]; [10]
  Bacterial growth relative to medium, L. monocytogenes, replicate 1: 102.734
  Bacterial growth relative to medium, L. monocytogenes, replicate 2: 82.6703
  Bacterial growth relative to medium, L. monocytogenes, replicate 3: 49.785
[7]; [11]
  Bacterial growth relative to medium, S. epidermidis, replicate 1: 97.145
  Bacterial growth relative to medium, S. epidermidis, replicate 2: 104.641
  Bacterial growth relative to medium, S. epidermidis, replicate 3: 74.4979
